Test results: patent US20080070986A1, “ALKYLETHER CITRATES FOR SELECTIVELY CLEANING THE SKIN” (priority 2006, published 2008)

Legend:
Assay in all cases: Minimum inhibiting concentration (MIC), dilution series to DIN 58940 and DIN 58944
Format in all cases: cell-based
[1] = tested on: Propionibacterium acnes; design: Minimum inhibiting concentration: unit not given here; conditions: for Minimum inhibiting concentration: test solution 10% active substance
Protocol: (§1) The scale of an antimicrobial effect of surfactants can be established in a biological test system in which the minimum inhibiting concentration (MIC) is comparatively determined under laboratory conditions. In a dilution series of the test substance, the MIC is just that concentration at which no further growth is possible. The milder a surfactant, the higher the MIC value. The minimum inhibiting concentration of various surfactants was determined for three microorganisms occurring on the skin (Table 1). The surfactants are referred to by their names under the INCI nomenclature. [table] [table]

[2] = tested on: Staphylococcus epidermidis; design: Minimum inhibiting concentration: unit not given here; conditions: for Minimum inhibiting concentration: test solution 10% active substance
Protocol: as §1

[3] = tested on: Malassezia furfur; design: unit not given here; conditions: test solution 10% active substance
Protocol: as §1

[4] = in words, versus the other surfactants of Table 1

| Substance | Minimum inhibiting concentration ([1]; pH 6.5, single surfactants) | Minimum inhibiting concentration ([2]; pH 6.5, single surfactants) | Minimum inhibiting concentration ([3]; pH 6.5, single surfactants) | Inhibition compared with the other surfactants [1, 4] | Minimum inhibiting concentration ([1]; surfactant combinations) | Inhibition compared with the other surfactants [2, 4] | Minimum inhibiting concentration ([2]; surfactant combinations) | Minimum inhibiting concentration ([3]; surfactant combinations) |
| --- | --- | --- | --- | --- | --- | --- | --- | --- |
| Lauryl Glucoside | 0.05 | 0.5 | >0.5 |  |  |  |  |  |
| Cocamidopropyl betaine | 0.05 | 0.1 | >0.5 |  |  |  |  |  |
| Laureth-7 Citrate | >0.5 | >0.5 | >0.5 | only inhibited at considerably higher concentrations | ≧1 | only inhibited at considerably higher concentrations | ≧1 | ≧1 |
| Sodium Laureth Sulfate | 0.05 | 0.5 | >0.5 |  | 0.05 |  | 0.5 | ≧1 |
